The values below come from US20260071150A1, “MICROBIAL ENHANCED COMPOSITIONS WHICH OVERCOME ANTAGONISTIC SURFACTANT INCOMPATIBILITY” (Stepan Company, priority 2023, published 2026).

The nature of data set [1]: physical stability (spore dispersion) of test compositions. The format is physicochemical. The method, then:
The alpha sulfonated alkyl ester test compositions from Example 3 were used for this stability assessment because, unexpectedly, the spores in some of the test compositions remained fully dispersed in the compositions after sitting for 1 week, even though the test compositions were at use dilution and water thin. Physical stability of the test compositions was assessed by photographing the test compositions in the parent sample jars (from which the Example 3 samples were taken), looking down on the sample jars, and quantifying the degree of precipitation via Tracker.jar image analysis.

In data set [2] the test system is Bacillus species mix in spore form. Briefly: dyed extra-virgin olive oil (EVOO) digestion test with Stat-Ease 360 optimization. Type of data set: cell-based. As to the method: Because EVOO is a food source for vegetative cells, lightly-dyed EVOO added to a test sample containing bacterial spores can be an indicator of biological activity. […] Each test composition also included 0.20 g of 33 g/L Nutrient Mix (30 g/L Tryptic Soy Broth BD211825 and 3 g/L Yeast Extract BD212750 at pH 7.1-7.4). The test composition is mixed, then stored at 37° C. for 2-3 days to condition the spores. […] The initial oil drop is digitally photographed, and re-photographed after 4 days of gentle swirling on an orbital shaker at a setting of 1-2 on a scale of 0-10. Oil drop sizes are determined by transferring the photographed images to a computer and measuring the major diameter of each oil drop using a Tracker.jar line profile analysis (https://physlets.org/tracker/) to determine the length of the diameter in units of pixels. Oil drop sizes of initial and digested test samples are compared. […] An increase in measured drop diameter is interpreted as a change in surface tension due to the surfactant, combined with no or minimal EVOO digestion by the bacteria.
Stat-Ease 360 software was used to generate each design of experiment sample group, model the test results from the resulting data, and generate statistics for the optimal models. The models were then used to generate an optimization plot using Stat-Ease 360's Numerical Optimization function. The optimization includes a contour plot of “desirability” of component levels for the defined design space. These plots visually represent the complex relationships between the surfactant and additive components and show where desired performance is high and where it is low or zero.

Data set [3] shares this test system. Briefly: un-dyed EVOO test, visual haze. The conditions noted are these: for biological activity (haze), magnesium salt in the additive: 0.2 wt % rhamnolipids, 0.03 wt % L-alanine, 0.03 wt % potassium nitrate, 0.14 wt % magnesium salt; for biological activity (haze), low foam alkoxylate with additives: 1.0 wt % TOXIMUL 8240, 0.09 wt % L-alanine.
Description: Comparative compositions were also prepared comprising the surfactant and bacterial spores, but no additive. Control compositions contained the bacterial spores, with and without additives, but no surfactant. All test, comparative and control compositions contained 2 wt % of 3.3 g/L Nutrient Mix. The pH was adjusted to pH of 7 if needed, using L-lactic acid or dilute NaOH. The compositions were photographed initially, then re-photographed after 4 and 5-7 days of orbital-mixer shaking at setting “5”, and initial and aged compositions were compared visually to determine differences.
Data set [4] deals with beneficial microorganisms. The experiment in a line: compatibility of surfactants and builders with beneficial microorganisms. Type of data set: cell-based. As to the method:
The compositions of the present technology comprise at least one surfactant that is incompatible with a beneficial microorganism. Incompatibility between a surfactant and a beneficial microorganism has been investigated in various ways, such as a standard Zone of Inhibition test, a standard agar plating test, or a standard resazurin (7-hydroxy-10-oxidophenoxazin-10-ium-3-one, sodium) (a blue fluorogenic dye) compatibility assay. In a Zone of Inhibition test, microorganisms are grown, cultured, diluted down to target levels, and then applied to a Petri dish containing agar nutrients. Test samples containing the surfactant of interest are diluted and loaded into an agar well created within the agar nutrient. The plates are incubated and microorganism growth is allowed to develop. […] This halo is referred to as the zone of inhibition. The larger the zone, the bigger the effect of inhibition. Major suitability limitations for non-antibiotics test samples for this test method are inherent large dilution of active, agar diffusion challenges, and nutrient media incompatibilities (neutralization, precipitation, etc). Although this method has been used in the medical field for antibiotics very successfully for decades, it has low suitability when testing non-antibiotic samples. In a standard agar plating test, test samples containing the surfactant of interest and microorganisms are exposed, diluted several orders of magnitude, and plated onto a nutritive agar that is incubated. After an incubation period appropriate for the species, the microorganism growth pattern is evaluated against appropriate controls. […] The test samples are incubated and then inspected for colorometric and fluorescence change. Test samples that are blue and have low fluorescence indicate no biological activity and incompatibility between the surfactant and the microorganism. Test samples that are pink and have high fluorescence indicate biological activity and compatibility of the surfactant with the microorganism. […]

The next data set deals with Bacillus spore blend. Briefly: diluted concentrate EVOO haze test. The format is cell-based. The method, then: Concentrates of two test formulations were prepared comprising the alkyl ether sulfate surfactant at 7.5 wt % actives, a Bacillus spore blend at 10.0 wt % (5×10^9 CFU/g), a mixture of 0.75 wt % potassium chloride and 0.75 wt % magnesium nitrate, and water to total 100%. Castor oil 36EO alkoxylate (TOXIMUL® 8240) (100% active) in an amount of 1.5 wt % was added to one of the test formulations. Two comparative concentrate compositions were also prepared. One comparative composition comprised the same amount of surfactant and spores but no additive or TOXIMUL® 8240, and the other comparative composition comprised the same amount of surfactant, spores, and TOXIMUL® 8240, but no additive. A total of 20 g of each concentrate composition was prepared.
For the test, each concentrate composition was diluted to 2.0 wt % (1×10^8 CFU/g) in a 4 oz glass jar, with 1 wt % 33 g/L Nutrient (30 g/L Tryptic Soy Broth+3 g/L Yeast Extract), 0.2 wt % Extra Virgin Olive Oil (EVOO), and water to total 50.0 g total weight. The jars were mixed on the orbital shaker for 15-30 minutes and initially photographed, and then mixed on the orbital shaker for 7 days and re-photographed.
Concentrates of the four test formulations were prepared comprising the calcium alkyl benzene sulfonate surfactant at 7.5 wt % actives, a Bacillus spore blend at 10.0 wt % (5×10^9 CFU/g), 1.5 wt % of the respective additive mixture, and water to total 100%. Each concentrate was 20 g total weight. Two control concentrates were also prepared. The positive control concentrate contained 10 wt % of the Bacillus spore blend and water, and the negative control concentrate contained 10 wt % of the Bacillus spore blend, 7.5 wt % surfactant actives, and water.

Setting [5] is: alkyl sarcosinate MAPROSYL 30-B, FIG. 3.
Where [6] appears, read: alpha-sulfonated alkyl ester ALPHA-STEP PC-48, additives with glucose, FIG. 5.
[7] abbreviates: alpha-sulfonated alkyl ester ALPHA-STEP PC-48, additives without glucose, FIG. 4.
Where [8] appears, read: surfactant 0.2 wt % active, 0.09 wt % potassium nitrate, 0.02 wt % magnesium chloride hexahydrate, 7 days.
The mark [9] stands for this setting: concentrate 7.5 wt % surfactant actives diluted to 2.0 wt %.

Read-outs that look alike come from different tables or passages of the source.

`O=[N+]([O-])[O-].[K+]` [KNO3, potassium nitrate]: the “desirability (contour plot combining digestion and physical stability)” value in data set [1] (alpha sulfonated alkyl ester test compositions of Example 3, FIG. 10) is “higher desirability”. Also, the “desirability (optimization contour plot of EVOO digestion)” value in data set [2] (setting [5]), in data set [2] (setting [6]) and in data set [2] (setting [7]) was “high desirability” each time.

Turning to `C[C@H](N)C(=O)O` [L-alanine], the “desirability (contour plot combining digestion and physical stability)” value in data set [1] is listed as “higher desirability”. Moreover, the “desirability (optimization contour plot of EVOO digestion)” value is on record as “high desirability” in data set [2] (setting [5]); “low to zero desirability” in data set [2] (setting [6]); “high desirability” in data set [2] (setting [7]); “high desirability” in data set [2] (rhamnolipid surfactant, additives without glucose, FIG. 1).

As for `O=C([O-])CC(O)(CC(=O)[O-])C(=O)O.[Mg+2]` [Mg(Citrate) dibasic], the “biological activity (haze), magnesium salt in the additive” value (“biological activity … in the additive” for short) in data set [3] (7 days) is “restore biological activity”.

`O=[N+]([O-])[O-].O=[N+]([O-])[O-].[Mg+2]` [Mg(NO3)2, magnesium nitrate]: the “biological activity … in the additive” value in data set [3] (7 days) is listed as “restore biological activity”.

In the case of `O=S(=O)([O-])[O-].[Mg+2]` [MgSO4, magnesium sulfate], the “biological activity … in the additive” value in data set [3] (7 days) is given as “restore biological activity”.

As to `C=CCCCCCCCC(=O)N(C)C` [STEPOSOL MET-10U], in data set [4], the “compatibility with beneficial microorganisms” value (“compatibility” below) was “compatible”.

As to `O.O.O=C([O-])CC(O)(CC(=O)[O-])C(=O)[O-].[Na+].[Na+].[Na+]` [sodium citrate dihydrate], the “compatibility” value in data set [4] is recorded as “compatible”.

For the compound `O=C([O-])[C@H](O)[C@@H](O)[C@H](O)[C@H](O)CO.[Na+]` [sodium gluconate], the “compatibility” value in data set [4] was “compatible”.

On to “C12-C14 monoethanolamide-7EO-4PO [C42 MEA Amide-7EO-4PO]”, for which the “biological activity (haze), low foam alkoxylate with additives” value in data set [3] (setting [8]) was “increased biological activity”.

Turning to calcium alkyl benzene sulfonate, the “haze after 7 days, equal amounts of the additive components” value in the data set on Bacillus spore blend (7.5 wt % surfactant actives, 0.5 wt % of each of L-alanine, Mg(NO3)2 and KCl, diluted to 2.0 wt %) is “some increase in haze”. In addition, the “haze after 7 days, L-alanine as the majority additive component” value in the data set on Bacillus spore blend (7.5 wt % surfactant actives, 1.0 wt % L-Alanine + 0.25 wt % each of KCl and Mg(NO3)2, diluted to 2.0 wt %) was “some increase in haze”. Besides, in the data set on Bacillus spore blend (7.5 wt % surfactant actives, 1.0 wt % Mg(NO3)2 and 0.25 wt % each of L-alanine and KCl, diluted to 2.0 wt %), the “haze after 7 days, Mg(NO3)2 as the majority additive component” value was “some increase in haze”. Besides, the “haziness after 7 days, surfactant without additive (negative control)” value in the data set with Bacillus spore blend (setting [9]) is “reduced haziness”.

With “cocoamidopropyl hydroxysultaine [AMPHOSOL® CS-50]”, in data set [3] (surfactant 0.2 wt % active, 0.09 wt % L-alanine, 0.09 wt % potassium nitrate, 0.02 wt % magnesium chloride hexahydrate, 7 days), the “biological activity (haze) of bacterial spores, surfactant with additives” value is recorded as “shows haze, indicative of biological activity”. Moreover, the “biological activity (haze) of bacterial spores, surfactant without additives” value in data set [3] (surfactant 0.2 wt % active, no additive, 1×10^7 CFU/g, 7 days orbital shaking) is “inhibits biological activity”.

Turning to isodecyl-1PO-8EO [DA-1PO-8EO], the “biological activity (haze), low foam alkoxylate with additives” value in data set [3] (setting [8]) is recorded as “increased biological activity”. Moreover, in data set [3] (surfactant 0.2 wt % active, 1.0 wt % TOXIMUL 8240, no additive, 7 days), the “biological activity (haze), low foam alkoxylate without additives” value is given as “the most sign of inhibition”.

On to “sodium laureth sulfate [alkyl ether sulfate]”, for which, in the data set with Bacillus spore blend (setting [9]), the “haze after 7 days, 1.5 wt % TOXIMUL 8240, no additive” value is “lack of haze” and the “haze after 7 days, no additive, no TOXIMUL 8240” value is “lack of haze”. The “haze after 7 days, additive and TOXIMUL 8240” value in the data set with Bacillus spore blend (concentrate 7.5 wt % surfactant actives, 0.75 wt % potassium chloride, 0.75 wt % magnesium nitrate, 1.5 wt % TOXIMUL 8240, diluted to 2.0 wt %) was “increase in haze”. For the same compound, the “haze after 7 days, additive, no TOXIMUL 8240” value in the data set with Bacillus spore blend (concentrate 7.5 wt % surfactant actives, 0.75 wt % potassium chloride, 0.75 wt % magnesium nitrate, diluted to 2.0 wt %) is listed as “lack of haze”.
